Measured values taken from article PMC3853024, “Aromatase inhibitor treatment with an intravaginal device and its effect on pre-ovulatory ovarian follicles in a bovine model” (Reproductive Biology and Endocrinology : RB&E, 2013).

Legend:
[1] = tested on: pre-ovulatory ovarian follicles; assay: Ovarian ultrasonography in heifers treated with a letrozole-containing intravaginal device; assay type: in vivo, cattle (Hereford-cross beef heifers); settings: for Device placement to ovulation: inserted Day 1, n=15, mean±SEM
Procedure: Hereford-cross beef heifers (n=30), 15 to 20 months of age and weighing between 235 and 405 kg (average 336 kg), were chosen from a herd of 51 heifers maintained in outdoor pens at the University of Saskatchewan Goodale Research Farm (52° North and 106° West). Heifers were fed alfalfa/grass hay and concentrate to gain approximately 1.3 Kg per day and had water ad libitum during the experimental period from October to December. Heifers were initially examined by transrectal ultrasonography (MyLab5 VET, Canadian Veterinary Imaging, Georgetown, Ontario Canada) to detect the presence of a CL (i.e., confirm post-pubertal status; [18]. Animal procedures were performed in accordance with the Canadian Council on Animal Care and were approved by University of Saskatchewan Protocol Review Committee.
(§1) Heifers in which a CL was detected were given two luteolytic doses of PGF (12 h apart) and monitored by ultrasonography for ovulation. Five to eight days later, the two largest ovarian follicles were ablated by transvaginal ultrasound-guided follicular aspiration to synchronize follicular wave emergence which was expected to occur 1 to 1.5 days later. Prostaglandin (500 μg cloprostenol, Estrumate, Schering-Plough Animal Health, Pointe-Claire, QC, Canada) was given intramuscularly at 60 and 72 h after follicular ablation to induce regression of the CL and shift from a non-ovulatory to an ovulatory follicular wave. At the time of follicular wave emergence (Day 0; i.e., 1.5 days after follicle ablation), heifers were assigned randomly to two groups and given an intravaginal device containing 1 g of letrozole (letrozole group, n=15) or a placebo (letrozole-free) intravaginal device (control group, n=15). Devices were inserted on Day 1 and were kept in place until Day 7 or until ovulation was detected, which ever occurred first.
Intravaginal devices were prepared using a Cue-Mate spine (Bioniche Animal Health, Bellville, ON, Canada) assembled with two blank (progesterone-free) silicone pods that were coated with a gel-based vehicle containing letrozole or vehicle only (control). The vehicle contained the following (all ingredients % w/w): letrozole 10%, gelatin 20% (Gelatin type B, Fisher Scientific, Pittsburgh, PA, USA), polymer 65% (prepared by mixing distilled water 68%, Poloxamer 188 12% and Poloxamer 407 20%, both from Spectrum Chemical, New Brunswick, NJ, USA) and distilled water 5%.
The observations from ultrasound examinations were recorded on a sketch sheet in which each ovary and its structures (CL and follicles ≥ 4 mm in diameter) were represented by size and location. Ovulation was defined as the disappearance of any follicle ≥8 mm between two consecutive daily examinations and was confirmed by the subsequent development of a CL [18]. Follicular wave emergence was defined as occurring 1.5 days after follicular ablation. The dominant follicle of a wave was defined as the largest antral follicle of that wave.
Statistical analyses were done using the Statistical Analysis System software package (SAS Learning Edition 9.1, 2006; SAS Institute Inc., Cary, NC, USA). Time-series data (hormone concentrations, follicle and CL diameter profiles) were analyzed by repeated measures using the PROC MIXED procedure. The main effects were treatment (letrozole and control), time, and their interactions (noted in figures as treatment, day and treat*day, respectively). Single-point measurements (dominant follicle diameter at device placement, maximum diameter of extant dominant follicle, intervals from ablation to wave emergence, and from device placement to ovulation) were analyzed by t-tests. Individual time point comparisons between treatment groups were performed using least significant difference test. Significance was defined as P ≤ 0.05.

plasma FSH = assay: Plasma FSH concentration (radioimmunoassay) in treated heifers; assay type: in vivo, cattle (Hereford-cross beef heifers); settings: n=15, P=0.1
Procedure: as §1, with “At the time of follicular wave emergence (Day 0; i.e., 1.5 days after follicle ablation), heifers were assigned randomly to two groups and given an intravaginal device containing 1 g of letrozole (letrozole group, n=15) or a placebo (letrozole-free) intravaginal device (control group, n=15).” left out, “first. […]” for “first.”
Plasma FSH concentrations were determined in duplicate using a double-antibody radioimmunoassay using NIDDK-anti-oFSH-1 primary antibody and expressed as USDA bovine FSH-Il units. […] All samples were analyzed in a single assay; the intra-assay coefficients of variation were 7.9 and 6.5%, for low (mean, 2.4 ng/mL) and high reference samples (mean 4.9 ng/mL), respectively. […]

ovarian function = tested on: ovarian function; design: method as in PMID 21696721, PMID 22541551; settings: cited from earlier work
plasma LH = assay: Plasma LH concentration (radioimmunoassay) in treated heifers; assay type: in vivo, cattle (Hereford-cross beef heifers); settings: n=15, P=0.61
Procedure: as §1, with “At the time of follicular wave emergence (Day 0; i.e., 1.5 days after follicle ablation), heifers were assigned randomly to two groups and given an intravaginal device containing 1 g of letrozole (letrozole group, n=15) or a placebo (letrozole-free) intravaginal device (control group, n=15).” left out, “first. […]” for “first.”
Plasma LH concentrations were determined in duplicate using a double-antibody radioimmunoassay (NIDDK-bLH4). […] All samples were analyzed in a single assay; the intra-assay coefficient of variation was 11.4% for low reference samples (mean, 0.9 ng/mL) and 12.2% for high reference samples (mean, 2.1 ng/mL).
Statistical analyses were done using the Statistical Analysis System software package (SAS Learning Edition 9.1, 2006; SAS Institute Inc., Cary, NC, USA). Time-series data (hormone concentrations, follicle and CL diameter profiles) were analyzed by repeated measures using the PROC MIXED procedure. […]

[2] = single intravenous dose Day 3 post-ovulation, or 3-day regimen Days 1–3, 3–5 or 5–7 post-ovulation

Structure (SMILES): N#Cc1ccc(C(c2ccc(C#N)cc2)n2cncn2)cc1 [Letrozole]
- Dominant follicle diameter at device placement ([1]; Day 1, at device insertion (baseline), n=15, mean±SEM): 4.2±0.46 mm
- Corpus luteum diameter profile versus control ([1]; after post-treatment ovulation, n=15, P=0.82): not different
- Number of ovulations ([1]; all heifers, regardless of treatment): Single ovulation
- Day-to-day diameter profile of the dominant follicle versus control ([1]; during treatment, n=15, P=0.05): larger
- Device placement to ovulation ([1]; intravaginal device containing 1 g letrozole): 6.1 ± 0.25 days
- Device placement to ovulation ([1]; intravaginal device containing 1 g letrozole, listed as letrozole): 6.1 ± 0.25 days
- Delay of ovulation versus control ([1]; intravaginal device containing 1 g letrozole, n=15): 24 h
- Max. diameter of extant dominant follicle ([1]; intravaginal device containing 1 g letrozole, n=15, mean±SEM): 14.6±0.51 mm
- Max. diameter of extant dominant follicle ([1]; intravaginal device containing 1 g letrozole, n=15, mean±SEM, listed as letrozole): 14.6+/-0.51 mm
- Plasma FSH concentrations versus control (plasma FSH): tendency for lower
- Corpora lutea size following treatment (ovarian function; heifers treated with letrozole for 3 days): larger corpora lutea
- Circulating FSH concentration (ovarian function; [2]): did not induce an elevation
- Mean plasma luteinizing hormone (LH) concentrations (ovarian function; [2]): did increase
- Mean plasma LH concentrations versus control (plasma LH): did not differ
